According to paper PMC12265714 (bioRxiv, 2025):

Molecular target: T1, ComFB (FB; Bsu FB) (Bacillus subtilis, UniProt P39146)
T1 sequence (P39146 1-98): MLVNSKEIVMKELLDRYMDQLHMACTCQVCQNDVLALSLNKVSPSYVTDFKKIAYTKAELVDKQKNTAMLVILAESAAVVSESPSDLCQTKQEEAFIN
Assay: isothermal titration calorimetry, one-site model
Assay type: binding

Kd [µM]	Compound
69.1 ± 139	Nc1ncnc2c1ncn2[C@@H]1O[C@@H]2COP(=O)(O)O[C@H]3[C@@H](O)[C@H](n4cnc5c(N)ncnc54)O[C@@H]3COP(=O)(O)O[C@H]2[C@H]1O [c-di-AMP]
0.14 ± 0.05	Nc1nc2c(ncn2[C@@H]2O[C@@H]3CO[P@](=O)(O)O[C@H]4[C@@H](O)[C@H](n5cnc6c(=O)[nH]c(N)nc65)O[C@@H]4CO[P@](=O)(O)O[C@H]3[C@H]2O)c(=O)[nH]1 [c-di-GMP]
